As usually defined, the IC50 is the concentration that inhibits the measured activity by half.

Results on 9 molecules are retold here after article PMC7886681, “Characterization and Validation of Arg286 Residue of IL-1RAcP as a Potential Drug Target for Osteoarthritis” (Frontiers in Chemistry, 2021).

The target of test [1] is IL-1β:IL-1RI:IL-1RAcP complex (Homo sapiens, UniProt P01584+P14778). The experiment in a line: Receptor complex immunoprecipitation pull-down with IL-1β western blot. It counts as biochemical. Particulars: for IL-1β pull down inhibition: concentration not given. As for the experimental part:
IL-1β (20 ng μl^−1), IL-1RI (100 ng μl^−1), and 6xHis-tagged IL-1RAcP (40 ng μl^−1) were incubated with parent Peptide 1.0, a peptide variant, or the antibody inhibitor at various concentrations in 50 μl of PBS for 1 h at room temperature under rotation. In parallel, IL-1β, IL-1RI, and 6xHis-tagged IL-1RAcP were allowed to interact without parent Peptide 1.0 as a positive control. IL-1β by itself acted as a negative control. BcMag Protein G Magnetic Beads (50 μl, Bioclone) were washed 3 times with washing buffer (57.7 mM Na2HPO4, 42.3 mM NaH2PO4, pH 7.0), incubated with anti-6xHis mouse monoclonal antibody (1 μg, Abcam) for 30 min under rotation, isolated with neodymium magnets, and washed three times with washing buffer (57.7 mM Na2HPO4, 42.3 mM NaH2PO4, pH 7.0). Protein complex mixtures were incubated with the anti-His antibody decorated magnetic beads for 1 h at room temperature under rotation. Magnetic beads were separated (neodymium magnets) and washed 3X with buffer (57.7 mM Na2HPO4, 42.3 mM NaH2PO4, pH 7.0). Immunoprecipitated proteins were eluted with 20 μl of 4X sample buffer (10 min, 70°C) and analyzed by western blotting (anti-IL1β antibody).
SDS-PAGE was used to separate the immune-precipitated proteins in a 4–20% Tris-Glycine gel for 90 min at 125 V. The proteins were transferred for 2 h at 25 V onto an Immobilion PVDF membrane. After blocking the membrane using PBS containing 0.2% (w/v) I-Block and 0.1% Tween 20 for 1 h at room temperature (or overnight at 4°C), the membrane was subjected to a 2-h incubation with an anti-IL1β antibody (1:1,000, Cell Signaling Technology) while undergoing continuous agitation. The membrane was washed with PBS containing 0.1% Tween 20, then subjected to a 1-h incubation with the secondary anti-mouse horseradish-peroxidase-conjugated anti-IgG antibody (1:10,000, Invitrogen). The western blot was developed using a chemiluminescence system (SuperSignal^TM West Dura Extended Duration Substrate) and imaged using a Kodak 4000MM system.
Statistical tests (One-way ANOVA with Dunnett's Multiple Comparison adjustment) and non-linear regression of the dose response pull down peptide inhibition data were performed using GraphPad Prism.

Test [2] has as its system IL-1β signaling in HEK-Blue IL-1β cells. The experiment in a line: HEK-Blue IL-1β reporter cell assay (SEAP). It counts as cell-based, human. Particulars: 2 μM peptide; IL-1β 2.5 ng/ml; triplicate. The method, then: HEK 293 reporter cells for human IL-1β (HEK-Blue IL-1β cells, Invivogen) were used to test the ability of peptide variants to inhibit IL-1β signaling pathway. HEK-Blue IL-1β cells were used according to manufacturer instructions. HEK-Blue IL-1β cells were cultured in Dulbecco's modified Eagle's medium (DMEM, Gibco) additioned with 10% heat inactivated fetal bovine serum (ATCC), 4.5 g/l glucose (Sigma), and 2 mM L-glutamine (ATCC) at 37°C, 5% CO2, in a humidified environment. HEK-Blue IL-1β cells (5,000 cells/well) were plated into 96-well tissue culture plates. The following day, cells were pre-treated for 1 h with peptide variants (Peptides 1.0, 1.1, 1.2, 2.0, 3.0, 4.0, and 4.3) or soluble IL-1RAcP (2 ng/μL) as a positive control. The cells were then stimulated with IL-1β at 2.5 ng/ml for 30 min. Following stimulation, the medium was changed and the inhibitors were added again to the plate. The cells were then left to incubate overnight. The next day, 160 μl of QUANTI-Blue (Invivogen) were added to each well. The plate was incubated at 37°C for 1 h. Then, the plate was placed in a spectrophotometer to detect the levels of secreted embryonic alkaline phosphatase (SEAP) in each well at a wavelength of 625–655 nm. Each peptide was tested in triplicate and an ANOVA test with Dunnett's test for multiple comparisons was performed to determine significance of inhibition.

Test [3] addresses T1, interleukin 1β (IL-1β) (UniProt P01584 117-269).
T1 construct: interleukin 1β used at 20 ng/µl in the pull-down; Species is surmised as human: PDB 4DEP was used for modelling, the reporter cells are for human IL-1β and the MS search used the human database
Briefly: pull-down; IL-1β (20 ng/µl), IL-1RI (100 ng/µl) and 6xHis-tagged IL-1RAcP (40 ng/µl) incubated with or without peptide at various concentrations in 50 µl PBS, 1 h, room temperature; captured on anti-6xHis antibody on Protein G magnetic beads; washed in phosphate buffer pH 7.0; western blot with anti-IL-1β; band intensity relative to the control without peptide. Conditions: both partners purified. Background: A western blot detects proteins with antibodies after separation by electrophoresis.

The target in test [4] is T1, interleukin 1β (IL-1β). Briefly: cell-based or functional assay.

Bridges are numbered along the chain shown (N, C = ends). Where no end group is shown, it is not given here.

Chain of IL-1β:IL-1RI:IL-1RAcP complex (P01584 117-269): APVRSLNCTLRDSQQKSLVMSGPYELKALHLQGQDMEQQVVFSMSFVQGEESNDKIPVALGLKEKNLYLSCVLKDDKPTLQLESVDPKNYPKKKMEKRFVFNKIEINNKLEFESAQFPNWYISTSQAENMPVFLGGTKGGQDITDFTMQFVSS
Chain of IL-1β:IL-1RI:IL-1RAcP complex (P14778 18-332 limits assumed): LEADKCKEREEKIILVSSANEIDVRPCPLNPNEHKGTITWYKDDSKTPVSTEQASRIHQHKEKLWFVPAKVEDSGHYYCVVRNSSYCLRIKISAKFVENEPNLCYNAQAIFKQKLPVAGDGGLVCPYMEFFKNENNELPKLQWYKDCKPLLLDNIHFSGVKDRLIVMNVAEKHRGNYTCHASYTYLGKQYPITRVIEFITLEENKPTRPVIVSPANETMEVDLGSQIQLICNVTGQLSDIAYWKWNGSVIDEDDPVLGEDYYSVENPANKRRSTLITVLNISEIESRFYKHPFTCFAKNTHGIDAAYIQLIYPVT

Consider “T C N Q SISHS R T QNQ TRTQ C LS (disulfide) [Peptide 4.2, cyclized Gln/Asn variant, cycle length 18]”, for which the “IL-1β concentration in the pulled down fraction, % of positive control” value in test [1] (0.04 nM peptide) stood at 102%; in test [1] (40 nM peptide), 36%. Besides, the “IL-1β pull down inhibition” value in test [1] is “higher than 45%”. Moreover, the “difference in inhibition of IL-1β signaling versus Peptide 1.0” value in test [2] is reported as 42%.
On to “T C NESISHS R TEDETRTQ C LS (disulfide) [Peptide 1.2, cyclized Peptide 1.0 variant, cycle length 18]”, for which the “IL-1β concentration in the pulled down fraction, % of positive control” value in test [1] (0.4 nM peptide) came to 60%; in test [1] (4 nM peptide) it was 51%; in test [1] (40 nM peptide), 35%. Moreover, the “IL-1β pull down inhibition” value in test [1] is recorded as “higher than 45%”. In test [2], the “difference in inhibition of IL-1β signaling versus Peptide 1.0” value came to 28%.
For the molecule “TINESISHS A TEDETRTQILS [Peptide 2.0, negative control peptide with alanine instead of arginine in position 286]”, the “IL-1β in the pulled-down fraction, % of positive control” value in test [1] (25 nM peptide) was 99%.
Take “TINESISHS R TEDETRTQILS [Peptide 1.0, synthetic peptide mimicking IL-1RAcP Arg286 hot spot region]”: the IL-1β pull down in test [1] (12.5 nM peptide, relative to positive control without inhibitor) is on record as 60%. In test [1] (124 and 62 nM peptide), the “reduction of IL-1β pull down” value is 26–30%. For the same molecule, in test [1], the “IL-1β pull down inhibition” value is given as “higher than 45%”.
Take TINESISHSRTEDETRMQILS [Peptide 3.0]: the “IL-1β concentration in the pulled down fraction, % of positive control” value in test [1] (0.04 nM peptide) amounted to 112%. Further, the “IL-1β pull down reduced to” value in test [1] (40 and 4 nM peptide, relative to positive control without inhibitor) is given as 8–9%. In test [1] (His-tagged IL-1RAcP pull-down, IL-1β western blot band intensity relative to positive control, non-linear regression of dose response, read-out: IC50, inhibition of IL-1β complex formation), the IC50 came to 304 pM. The “IL-1β pull down inhibition” value in test [1] was “higher than 45%”.

B1: Peptide 1.0 (peptide)
peptide: TINESISHSRTEDETRTQILS
notes: Linear, 21 residues; also called parent Peptide 1.0; lead peptide; source: synthetic peptide (Peptide 2.0, Inc; Fmoc/tBu solid phase, RP-HPLC to 98% purity)
On to B1, for which the “% IL-1β pull down with IL-1RAcP relative to no peptide (peptide at 12.5 nM)” value with interleukin 1β (IL-1β) [3] was 60%.

B2: Peptide 3.0 (peptide)
peptide: TINESISHSRTEDETRMQILS
notes: IL-1RAcP stretch around Arg286 with methionine at 293; source: synthetic peptide (Peptide 2.0, Inc; Fmoc/tBu solid phase, RP-HPLC to 98% purity)
Molecule B2 gave an IC50 with interleukin 1β (IL-1β) [3] of 304 pM. Further, the “HEK-Blue IL-1β reporter cells (SEAP), inhibition of IL-1β signalling at 2 µM peptide, difference from Peptide 1.0; blocks formation of the IL-1β complex with IL-1RI and IL-1RAcP” value with interleukin 1β (IL-1β) [4] came out at 54%.

B3: Peptide 1.2 (peptide)
peptide: TCNESISHSRTEDETRTQCLS
modifications: disulfide 2-19
notes: IL-1RAcP stretch around Arg286 with two isoleucines replaced by cysteine; source: synthetic peptide (Peptide 2.0, Inc; Fmoc/tBu solid phase, RP-HPLC to 98% purity)
As for B3, in the test with interleukin 1β (IL-1β) [3], the “% IL-1β pull down with IL-1RAcP relative to no peptide (peptide at 0.4 nM)” value turned out to be 60%, the “% IL-1β pull down with IL-1RAcP relative to no peptide (peptide at 4 nM)” value is 51% and the “% IL-1β pull down with IL-1RAcP relative to no peptide (peptide at 40 nM)” value amounted to 35%. For the same molecule, the “HEK-Blue IL-1β reporter cells (SEAP), inhibition of IL-1β signalling at 2 µM peptide, difference from Peptide 1.0; blocks formation of the IL-1β complex with IL-1RI and IL-1RAcP” value with interleukin 1β (IL-1β) [4] was 28%.

B4: Peptide 4.2 (peptide)
peptide: TCNQSISHSRTQNQTRTQCLS
modifications: disulfide 2-19
notes: IL-1RAcP stretch around Arg286 with two cysteines for isoleucines and Gln/Asn for Glu/Asp; source: synthetic peptide (Biomatik; Fmoc/tBu solid phase, RP-HPLC to 98% purity)
On to B4, for which the “% IL-1β pull down with IL-1RAcP relative to no peptide (peptide at 40 nM)” value with interleukin 1β (IL-1β) [3] is 36%. The “HEK-Blue IL-1β reporter cells (SEAP), inhibition of IL-1β signalling at 2 µM peptide, difference from Peptide 1.0; blocks formation of the IL-1β complex with IL-1RI and IL-1RAcP” value in the test with interleukin 1β (IL-1β) [4] worked out at 42%.
